From US20130344026A1, “Dimeric Smac Mimetics” (priority 2009, published 2013)
Like-named read-outs stand apart in the source and are kept apart here.

Tested on: PANC-1 cells
Assay: cell viability assay in PANC-1 cells (compound alone, + 100 ng/ml TNFa, + 300 ng/ml TRAIL)
Assay type: cell-based
[1] = Homo sapiens, PANC-1, compound alone, Tables 6-10, read-out: IC50 (μM) in cell viability assay in PANC-1 cells: Compound alone
[2] = with 100 ng/ml TNFa, Tables 6-10, read-out: IC50 (μM) in cell viability assay in PANC-1 cells: Compound + 100 ng/ml TNFa
[3] = with 300 ng/ml TRAIL, Tables 6-10, read-out: IC50 (μM) in cell viability assay in PANC-1 cells: Compound + 300 ng/ml TRAIL
[4] = Homo sapiens, PANC-1 cells, compound alone, read-out: IC50 (uM) in cell viability assay in PANC-1 cells, Cmpnd alone
[5] = PANC-1 cells, + 100 ng/ml TNFa, read-out: IC50 (uM) in cell viability assay in PANC-1 cells, Cmpnd + 100 ng/ml TNFa
[6] = PANC-1 cells, + 300 ng/ml TRAIL, read-out: IC50 (uM) in cell viability assay in PANC-1 cells, Cmpnd + 300 ng/ml TRAIL
[7] = Homo sapiens, PANC-1, compound alone, Tables 15-18, read-out: IC50 (uM) in cell viability assay in PANC-1 cells: Cmpnd alone
[8] = with 100 ng/ml TNFa, Tables 15-18, read-out: IC50 (uM) in cell viability assay in PANC-1 cells: Cmpnd + 100 ng/ml TNFa
[9] = with 300 ng/ml TRAIL, Tables 15-18, read-out: IC50 (uM) in cell viability assay in PANC-1 cells: Cmpnd + 300 ng/ml TRAIL
[10] = compound alone, Tables 6-10, read-out: IC50 (μM) in cell viability assay in PANC-1 cells: Compound alone

| IC50 [1] [µM] | SMILES | IC50 [2] [µM] | IC50 [3] [µM] | further results |
| --- | --- | --- | --- | --- |
| > 1 | CN[C@@H](C)C(=O)N[C@H](C(=O)N1CCC[C@H]1C(=O)N[C@H](C)c1ccccc1)[C@H](C)NC(=O)CCCCC(=O)N[C@@H](C)[C@H](NC(=O)[C@H](C)NC)C(=O)N1CCC[C@H]1C(=O)N[C@H](C)c1ccccc1 [Compound 113] | 0.208 | 0.203 | – |
| – | CN[C@@H](C)C(=O)N[C@H](C(=O)N1C[C@@H](N(C)C(=O)c2cc(C(=O)N(C)[C@H]3C[C@@H](C(=O)N[C@H](C)c4ccccc4)N(C(=O)[C@@H](NC(=O)[C@H](C)NC)C(C)(C)C)C3)[nH]n2)C[C@H]1C(=O)N[C@H](C)c1ccccc1)C(C)(C)C [Compound P3-109] | – | – | IC50 [4]: > 1 µM; IC50 [5]: 0.028 µM; IC50 [6]: 0.049 µM |
| – | CN[C@@H](C)C(=O)N[C@H](C(=O)N1CCC[C@H]1CN(CCc1ccccc1)C(=O)CCC#CC#CCCC(=O)N(CCc1ccccc1)C[C@@H]1CCCN1C(=O)[C@@H](NC(=O)[C@H](C)NC)C(C)(C)C)C(C)(C)C [Compound P4-21] | – | – | IC50 [7]: > 1 µM; IC50 [8]: 0.151 µM; IC50 [9]: 0.175 µM |
| – | CN[C@@H](C)C(=O)N[C@@H](CCNCc1ccc(CNCC[C@H](NC(=O)[C@H](C)NC)C(=O)N2CCC[C@H]2C(=O)N[C@@H]2CCCc3ccccc32)cc1)C(=O)N1CCC[C@H]1C(=O)N[C@@H]1CCCc2ccccc21 [Compound P2-43] | – | – | IC50 [7]: > 1 µM; IC50 [8]: 0.012 µM; IC50 [9]: 0.016 µM |
| – | CN[C@@H](C)C(=O)N[C@H](C(=O)N1C[C@@H](Oc2cccc(CCCCc3cccc(O[C@H]4C[C@@H](C(=O)N[C@@H]5CCCc6ccccc65)N(C(=O)[C@@H](NC(=O)[C@H](C)NC)C(C)(C)C)C4)c3)c2)C[C@H]1C(=O)N[C@@H]1CCCc2ccccc21)C(C)(C)C [Compound P3-104] | – | – | IC50 [4]: > 1 µM; IC50 [5]: 0.042 µM; IC50 [6]: 0.042 µM |
| – | CC[C@@H](NC(=O)[C@@H]1C[C@H](NC(=O)c2cccc(C(=O)N[C@H]3C[C@@H](C(=O)N[C@H](CC)c4ccccc4)N(C(=O)[C@@H](NC(=O)[C@H](C)NC)C(C)(C)C)C3)c2)CN1C(=O)[C@@H](NC(=O)[C@H](C)NC)C(C)(C)C)c1ccccc1 [Compound 2] | 0.062 | 0.054 | IC50 [10]: > 1 µM |
| – | CN[C@@H](C)C(=O)N[C@H](C(=O)N1C[C@@H](Oc2cccc(C#CC#Cc3cccc(O[C@H]4C[C@@H](C(=O)N[C@@H]5CCCc6ccccc65)N(C(=O)[C@@H](NC(=O)[C@H](C)NC)C(C)(C)C)C4)c3)c2)C[C@H]1C(=O)N[C@@H]1CCCc2ccccc21)C(C)(C)C [Compound P3-103] | – | – | IC50 [4]: > 1 µM; IC50 [5]: 0.0316 µM; IC50 [6]: 0.037 µM |
| > 1 | CN[C@@H](C)C(=O)N[C@@H](CCCCCC[C@H](NC(=O)[C@H](C)NC)C(=O)N1CCCC[C@H]1C(=O)N[C@@H]1CCCc2ccccc21)C(=O)N1CCCC[C@H]1C(=O)N[C@@H]1CCCc2ccccc21 [Compound 94] | 0.014 | 0.049 | – |
| – | CN[C@@H](C)C(=O)N[C@H](C(=O)N1C[C@@H](OC(=O)c2cccc(C(=O)O[C@H]3C[C@@H](C(=O)N[C@H]4CCCc5ccccc54)N(C(=O)[C@@H](NC(=O)[C@H](C)NC)C(C)(C)C)C3)c2)C[C@H]1C(=O)N[C@H]1CCCc2ccccc21)C(C)(C)C [Compound P3-105] | – | – | IC50 [4]: > 1 µM |
| > 1 | CCC1(NC(=O)[C@@H]2C[C@H](NC(=O)c3cccc(C(=O)N[C@H]4C[C@@H](C(=O)NC5(CC)CCCc6ccccc65)N(C(=O)[C@@H](NC(=O)[C@H](C)NC)C(C)(C)C)C4)c3)CN2C(=O)[C@@H](NC(=O)[C@H](C)NC)C(C)(C)C)CCCc2ccccc21 (some centres unmarked) [Compound 50] | 0.236 | 0.122 | – |
| – | CN[C@@H](C)C(=O)N[C@H](C(=O)N1C[C@@H](NC(=O)c2cccc(C(=O)N[C@H]3C[C@@H](C(=O)N[C@@H]4CCCc5ccc(Br)cc54)N(C(=O)[C@@H](NC(=O)[C@H](C)NC)C(C)(C)C)C3)c2)C[C@H]1C(=O)N[C@@H]1CCCc2ccc(Br)cc21)C(C)(C)C (single isomer, unassigned) [Compound 63] | 0.143 | 0.162 | IC50 [10]: > 1 µM |
| – | CN[C@@H](C)C(=O)N[C@H](C(=O)N1CCC[C@H]1c1cc(C(=O)OC)c(-c2cn(CCCCCCn3cc(-c4oc([C@@H]5CCCN5C(=O)[C@@H](NC(=O)[C@H](C)NC)C(C)(C)C)cc4C(=O)OC)c4ccccc43)c3ccccc23)o1)C(C)(C)C [Compound P4-27] | – | – | IC50 [7]: > 1 µM; IC50 [8]: 0.0243 µM; IC50 [9]: 0.0294 µM |
| – | CCCC[C@@H](C)NC(=O)c1cc(C(=O)N[C@H]2C[C@@H](C(=O)N[C@@H]3CCCc4ccccc43)N(C(=O)[C@@H](NC(=O)[C@H](C)NC)C(C)(C)C)C2)cc(C(=O)N[C@H]2C[C@@H](C(=O)N[C@@H]3CCCc4ccccc43)N(C(=O)[C@@H](NC(=O)[C@H](C)NC)C(C)(C)C)C2)c1 [Compound 129] | 0.006 | 0.004 | IC50 [10]: > 1 µM |
| > 1 | CN[C@@H](C)C(=O)N[C@@H](CCCCCC[C@H](NC(=O)[C@H](C)NC)C(=O)N1Cc2ccccc2C[C@H]1C(=O)N[C@H](C)c1ccccc1)C(=O)N1Cc2ccccc2C[C@H]1C(=O)N[C@H](C)c1ccccc1 [Compound 96] | 0.211 | 0.417 | – |
| – | CN[C@@H](C)C(=O)N[C@@H](CCC(=O)Nc1ccc(C#Cc2ccc(NC(=O)CC[C@H](NC(=O)[C@H](C)NC)C(=O)N3CCC[C@H]3C(=O)N[C@@H]3CCCc4ccccc43)cc2)cc1)C(=O)N1CCC[C@H]1C(=O)N[C@@H]1CCCc2ccccc21 [Compound P3-98] | – | – | IC50 [4]: > 1 µM; IC50 [5]: 0.01 µM; IC50 [6]: 0.012 µM |
| > 1 | CN[C@@H](C)C(=O)NC(C(=O)N1C[C@@H](NC(=O)c2cccc(C(=O)N[C@H]3CC(C(=O)N[C@@H]4CC5CCC4(C)C5(C)C)N(C(=O)[C@@H](NC(=O)[C@H](C)NC)C(C)(C)C)C3)c2)CC1C(=O)N[C@@H]1CC2CCC1(C)C2(C)C)C(C)(C)C (some centres unmarked) [Compound 40] | 0.555 | 0.517 | – |
| > 1 | CN[C@@H](C)C(=O)N[C@H](C(=O)N1C[C@@H](NC(=O)c2cccc(C(=O)N[C@H]3C[C@@H](C(=O)NCc4ccc(OC)c(O)c4)N(C(=O)[C@@H](NC(=O)[C@H](C)NC)C(C)(C)C)C3)c2)C[C@H]1C(=O)NCc1ccc(OC)c(O)c1)C(C)(C)C [Compound 5] | 0.706 | 0.982 | – |
| – | CN[C@@H](C)C(=O)N[C@H](C(=O)N1C[C@@H](NC(=O)c2[nH]c(C(=O)N[C@H]3C[C@@H](C(=O)N[C@H](C)c4ccccc4)N(C(=O)[C@@H](NC(=O)[C@H](C)NC)C(C)(C)C)C3)c3c2OCCO3)C[C@H]1C(=O)N[C@H](C)c1ccccc1)C(C)(C)C [Compound P3-95] | – | – | IC50 [4]: > 1 µM; IC50 [5]: 0.006 µM; IC50 [6]: 0.006 µM |
| – | CN[C@@H](C)C(=O)N[C@H](C(=O)N1CCC[C@H]1c1nc(C(=O)NCCC#CC#CCCNC(=O)c2nc([C@@H]3CCCN3C(=O)[C@@H](NC(=O)[C@H](C)NC)C(C)(C)C)oc2-c2c[nH]c3ccccc23)c(-c2c[nH]c3ccccc23)o1)C(C)(C)C [Compound P4-24] | – | – | IC50 [7]: > 1 µM |
| > 1 | CN[C@@H](C)C(=O)N[C@H](C(=O)N1CCC[C@H]1CN1CCC[C@H]1C(c1ccccc1)c1ccccc1)[C@@H](C)OCC#CC#CCO[C@H](C)[C@H](NC(=O)[C@H](C)NC)C(=O)N1CCC[C@H]1CN1CCC[C@H]1C(c1ccccc1)c1ccccc1 [Compound 81] | 0.155 | 0.196 | – |
| – | CN[C@@H](C)C(=O)N[C@@H](Cc1ccc(NC(=O)Nc2ccc(C[C@H](NC(=O)[C@H](C)NC)C(=O)N3CCC[C@H]3C(=O)N[C@@H]3CCCc4ccccc43)cc2)cc1)C(=O)N1CCC[C@H]1C(=O)N[C@@H]1CCCc2ccccc21 [Compound P2-38] | – | – | IC50 [7]: > 1 µM; IC50 [8]: 0.021 µM; IC50 [9]: 0.037 µM |

| SMILES | IC50 [1] [µM] | IC50 [2] [µM] | IC50 [3] [µM] | further results |
| --- | --- | --- | --- | --- |
| CN[C@@H](C)C(=O)N[C@@H](CC#CC#CC[C@H](NC(=O)[C@H](C)NC)C(=O)N1CCC[C@H]1CNC(=O)c1ccccc1)C(=O)N1CCC[C@H]1CNC(=O)c1ccccc1 [Compound 14] | > 1 | > 1 | > 1 | – |
| CN[C@@H](C)C(=O)N[C@H](C(=O)N1C[C@@H](NC(=O)c2cccc(C(=O)N[C@H]3C[C@@H](C(=O)NC4CCCc5cc(F)ccc54)N(C(=O)[C@@H](NC(=O)[C@H](C)NC)C(C)(C)C)C3)c2)C[C@H]1C(=O)NC1CCCc2cc(F)ccc21)C(C)(C)C (single isomer, unassigned) [Compound 72] | > 1 | 0.0018 | 0.0033 | – |
| CN[C@@H](C)C(=O)N[C@H](C(=O)N1C[C@@H](NC(=O)c2cccc(C(=O)N[C@H]3C[C@@H](C(=O)N[C@@H]4CCCc5ccc(Br)cc54)N(C(=O)[C@@H](NC(=O)[C@H](C)NC)C(C)(C)C)C3)c2)C[C@H]1C(=O)N[C@@H]1CCCc2ccc(Br)cc21)C(C)(C)C (single isomer, unassigned) [Compound 62] | > 1 | 0.107 | 0.099 | – |
| CN[C@@H](C)C(=O)N[C@H](C(=O)N[C@@H](CCNC(=O)c1ccc(C#Cc2ccc(C(=O)N[C@H]3C[C@@H](C(=O)N[C@@H]4CCCc5ccccc54)N(C(=O)[C@@H](NC(=O)[C@H](C)NC)C(C)(C)C)C3)cc2)cc1)C(=O)NC(C)C(C)C)C(C)C (some centres unmarked) [Compound 194] | > 1 | 0.057 | 0.06 | – |
